Measured values as given in ChEMBL document CHEMBL5506032, “Discovery of 2,6-Naphthyridine Analogues as Selective FGFR4 Inhibitors for Hepatocellular Carcinoma” (J Med Chem, 2024).
Each block holds one compound with its values, some of them ahead of it. Activity calls are given as the source filed them. The calls are words filed in the database; no cut-off is given here.

Columns and labels:
Huh-7 [1] = test: Antiproliferative activity against FGFR4 overexpressing human Huh-7 cells assessed as inhibition of cell growth by SRB assay
[2] = target: Fibroblast growth factor receptor 4 (Homo sapiens, UniProt P22455); test: Inhibition of FGFR4 (unknown origin) by Z'-LYTE kinase assay
[3] = Toxicity in female BALB/c nude mouse xenografted with human Huh-7 cells assessed as effect on body weight at 100 mg/kg, po administered twice daily for 15 days; assay type: organism-based; conditions: in vivo, 360 h, time 15 day
[4] = target: Fibroblast growth factor receptor 3 (Homo sapiens, UniProt P22607); test: Inhibition of FGFR3 (unknown origin) by Z'-LYTE kinase assay
[5] = Antiproliferative activity against FGF19 amplified human JHH7 cells assessed as inhibition of cell growth by SRB assay
Hep 3B2 [6] = test: Antiproliferative activity against FGF19 amplified human Hep3B cells assessed as inhibition of cell growth by SRB assay
[7] = target: T1, Fibroblast growth factor receptor 1 (Homo sapiens, UniProt P11362); test: Inhibition of FGFR1 (unknown origin) by Z'-LYTE kinase assay
Target sequence in this assay (P11362 whole entry): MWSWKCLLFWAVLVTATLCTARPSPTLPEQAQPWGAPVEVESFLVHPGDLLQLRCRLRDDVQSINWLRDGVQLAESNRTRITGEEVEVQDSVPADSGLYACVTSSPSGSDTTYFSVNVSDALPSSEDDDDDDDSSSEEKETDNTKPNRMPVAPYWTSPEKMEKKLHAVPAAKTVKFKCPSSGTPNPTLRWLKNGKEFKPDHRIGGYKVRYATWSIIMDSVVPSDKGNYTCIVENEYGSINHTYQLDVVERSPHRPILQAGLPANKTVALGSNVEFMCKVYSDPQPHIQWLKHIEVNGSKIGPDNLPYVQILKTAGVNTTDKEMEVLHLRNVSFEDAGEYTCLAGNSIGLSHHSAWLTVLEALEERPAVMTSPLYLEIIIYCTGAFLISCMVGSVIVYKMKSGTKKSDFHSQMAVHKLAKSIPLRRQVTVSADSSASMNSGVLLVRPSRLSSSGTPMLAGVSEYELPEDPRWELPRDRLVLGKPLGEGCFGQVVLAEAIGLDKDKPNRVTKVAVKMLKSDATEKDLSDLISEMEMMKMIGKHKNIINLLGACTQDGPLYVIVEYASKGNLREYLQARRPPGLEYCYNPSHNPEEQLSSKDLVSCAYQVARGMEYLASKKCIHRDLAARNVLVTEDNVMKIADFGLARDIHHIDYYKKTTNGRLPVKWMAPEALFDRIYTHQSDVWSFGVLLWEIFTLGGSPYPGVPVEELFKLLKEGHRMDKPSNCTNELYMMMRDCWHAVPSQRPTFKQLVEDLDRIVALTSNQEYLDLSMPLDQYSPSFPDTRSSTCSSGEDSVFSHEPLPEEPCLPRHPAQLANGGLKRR

[8] = target: T2, Fibroblast growth factor receptor 2 (Homo sapiens, UniProt P21802); test: Inhibition of FGFR2 (unknown origin) by Z'-LYTE kinase assay
Target sequence in this assay (P21802 whole entry): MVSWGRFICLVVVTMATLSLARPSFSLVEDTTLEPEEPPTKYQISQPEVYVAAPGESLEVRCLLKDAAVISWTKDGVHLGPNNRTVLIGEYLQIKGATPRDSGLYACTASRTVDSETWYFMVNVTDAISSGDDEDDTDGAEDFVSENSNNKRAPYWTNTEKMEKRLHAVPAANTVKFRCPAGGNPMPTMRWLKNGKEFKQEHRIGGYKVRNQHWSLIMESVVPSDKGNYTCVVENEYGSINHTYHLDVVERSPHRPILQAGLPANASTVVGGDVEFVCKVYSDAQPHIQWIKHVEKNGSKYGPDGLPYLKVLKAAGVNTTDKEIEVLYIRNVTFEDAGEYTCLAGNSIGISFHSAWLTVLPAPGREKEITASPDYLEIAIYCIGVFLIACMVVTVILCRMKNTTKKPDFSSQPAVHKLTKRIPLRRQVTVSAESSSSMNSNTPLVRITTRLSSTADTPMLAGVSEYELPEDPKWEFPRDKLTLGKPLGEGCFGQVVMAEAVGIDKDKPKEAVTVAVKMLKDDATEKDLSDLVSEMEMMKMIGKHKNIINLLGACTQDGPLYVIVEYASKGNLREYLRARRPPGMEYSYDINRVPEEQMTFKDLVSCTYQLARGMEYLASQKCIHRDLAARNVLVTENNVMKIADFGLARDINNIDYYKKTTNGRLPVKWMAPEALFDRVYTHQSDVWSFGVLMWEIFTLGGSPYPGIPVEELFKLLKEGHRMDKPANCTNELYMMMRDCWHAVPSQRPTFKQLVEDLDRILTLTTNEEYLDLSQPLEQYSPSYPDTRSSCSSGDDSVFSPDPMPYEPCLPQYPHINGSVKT

[9] = Toxicity in female BALB/c nude mouse xenografted with human Huh-7 cells assessed as clinical signs at 100 mg/kg, po administered twice daily for 15 days; assay type: organism-based; conditions: in vivo, 360 h, time 15 day
Huh-7 [10] = test: Antitumor activity against human Huh-7 cells xenografted in female BALB/c nude mouse assessed as reduction in tumor volume at 100 mg/kg, po administered twice daily for 15 days; assay type: functional, organism-based; conditions: time 15.0 day
[11] = target: T2, Fibroblast growth factor receptor 2; test: Inhibition of FGFR2 (unknown origin) at 1 uM relative to control
Target sequence in this assay (P21802 22-821 limits assumed): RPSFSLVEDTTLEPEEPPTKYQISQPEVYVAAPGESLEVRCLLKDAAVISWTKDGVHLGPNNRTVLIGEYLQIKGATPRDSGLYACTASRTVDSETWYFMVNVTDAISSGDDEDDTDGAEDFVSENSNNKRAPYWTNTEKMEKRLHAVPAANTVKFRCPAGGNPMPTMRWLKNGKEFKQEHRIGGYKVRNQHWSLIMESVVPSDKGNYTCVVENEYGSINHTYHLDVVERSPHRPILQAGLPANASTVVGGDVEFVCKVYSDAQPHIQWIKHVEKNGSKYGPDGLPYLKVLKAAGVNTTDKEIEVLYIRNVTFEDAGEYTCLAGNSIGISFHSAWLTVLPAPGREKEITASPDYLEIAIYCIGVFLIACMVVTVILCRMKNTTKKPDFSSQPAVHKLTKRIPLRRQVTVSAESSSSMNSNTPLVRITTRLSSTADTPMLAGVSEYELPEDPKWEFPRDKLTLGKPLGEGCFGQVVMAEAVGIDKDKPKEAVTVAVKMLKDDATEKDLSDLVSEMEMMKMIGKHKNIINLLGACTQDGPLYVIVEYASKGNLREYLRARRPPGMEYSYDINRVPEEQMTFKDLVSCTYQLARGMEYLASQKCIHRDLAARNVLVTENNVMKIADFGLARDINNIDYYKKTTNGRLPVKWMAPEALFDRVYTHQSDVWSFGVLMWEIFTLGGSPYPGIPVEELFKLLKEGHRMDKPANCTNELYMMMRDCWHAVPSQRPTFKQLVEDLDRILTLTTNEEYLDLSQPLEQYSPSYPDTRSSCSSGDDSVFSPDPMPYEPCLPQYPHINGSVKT

[12] = AUC (0 to 24 hrs) in ICR mouse at 50 mg/kg, po measured after 24 hrs by LC-MS/MS analysis; assay type: ADME, organism-based; conditions: in vivo
Hep 3B2 [13] = test: Antitumor activity against human Hep3B cells xenografted in female BALB/c nude ectopic mouse assessed as reduction in tumor volume at 100 mg/kg, po administered twice daily for 15 days; assay type: functional, organism-based; conditions: time 15.0 day
Hep 3B-Luc [14] = test: Antitumor activity against human Hep 3B-Luc cells xenografted in female BALB/c nude mouse assessed as reduction in liver tumor volume at 100 mg/kg, po administered once daily for 7 weeks and measured within 35 days by bioluminescence imaging; assay type: functional, organism-based; conditions: time <= 35.0 day
RT-112 = test: Growth inhibition of FGFR3 overexpressing human RT-112 cells by SRB assay; assay type: functional
[15] = Cmax in ICR mouse at 5 mg/kg, iv by LC-MS/MS analysis; assay type: ADME, organism-based; conditions: in vivo
[16] = Half-life in ICR mouse at 50 mg/kg, po measured after 24 hrs by LC-MS/MS analysis; assay type: ADME, organism-based; conditions: in vivo
[17] = Cmax in ICR mouse at 100 mg/kg, po measured after 24 hrs by LC-MS/MS analysis; assay type: ADME, organism-based; conditions: in vivo
[18] = Growth inhibition of human HS27 cells by SRB assay; assay type: toxicity, cell-based
Hep 3B-Luc [19] = test: Antitumor activity against human Hep 3B-Luc cells xenografted in female BALB/c nude mouse assessed as reduction in liver tumor volume at 100 mg/kg, po administered once daily for 7 weeks and measured after 119 days by bioluminescence imaging; assay type: functional, organism-based; conditions: time 119.0 day
[20] = Tmax in ICR mouse at 100 mg/kg, po measured after 24 hrs by LC-MS/MS analysis; assay type: ADME, organism-based; conditions: in vivo
[21] = Tmax in ICR mouse at 50 mg/kg, po measured after 24 hrs by LC-MS/MS analysis; assay type: ADME, organism-based; conditions: in vivo
[22] = Tmax in ICR mouse at 200 mg/kg, po measured after 48 hrs by LC-MS/MS analysis; assay type: ADME, organism-based; conditions: in vivo
[23] = AUC (0 to 24 hrs) in ICR mouse at 100 mg/kg, po measured after 24 hrs by LC-MS/MS analysis; assay type: ADME, organism-based; conditions: in vivo
[24] = Growth inhibition of FGF19 amplified and FGFR4 overexpressing human JHH7 cells by SRB assay; assay type: functional
Hep 3B2 [25] = test: Growth inhibition of FGF19 amplified and FGFR4 overexpressing human Hep3B cells by SRB assay; assay type: functional
[26] = target: T1, Fibroblast growth factor receptor 1; test: Inhibition of FGFR1 (unknown origin) at 1 uM relative to control
Target sequence in this assay (P11362 22-822 limits assumed): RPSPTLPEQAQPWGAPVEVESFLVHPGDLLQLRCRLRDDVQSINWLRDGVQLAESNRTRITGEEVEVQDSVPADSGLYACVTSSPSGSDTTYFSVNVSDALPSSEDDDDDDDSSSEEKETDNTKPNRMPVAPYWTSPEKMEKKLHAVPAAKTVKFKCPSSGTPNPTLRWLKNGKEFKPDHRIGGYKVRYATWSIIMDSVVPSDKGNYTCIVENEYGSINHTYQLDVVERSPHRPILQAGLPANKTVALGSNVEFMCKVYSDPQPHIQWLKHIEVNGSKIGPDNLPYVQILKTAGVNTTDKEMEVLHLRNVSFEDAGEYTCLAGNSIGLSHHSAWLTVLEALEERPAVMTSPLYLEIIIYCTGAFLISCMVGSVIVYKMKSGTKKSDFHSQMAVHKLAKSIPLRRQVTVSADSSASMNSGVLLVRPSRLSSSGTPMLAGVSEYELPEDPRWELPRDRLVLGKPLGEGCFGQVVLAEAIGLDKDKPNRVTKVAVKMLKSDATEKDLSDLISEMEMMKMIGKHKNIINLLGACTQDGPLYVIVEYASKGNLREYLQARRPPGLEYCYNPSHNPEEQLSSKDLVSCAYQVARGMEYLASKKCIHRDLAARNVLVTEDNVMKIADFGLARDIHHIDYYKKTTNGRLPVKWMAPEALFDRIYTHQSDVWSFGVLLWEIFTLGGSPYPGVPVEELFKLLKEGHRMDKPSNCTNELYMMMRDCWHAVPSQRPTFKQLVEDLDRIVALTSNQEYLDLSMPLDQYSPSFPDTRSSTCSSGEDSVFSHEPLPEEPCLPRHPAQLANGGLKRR

[27] = Cmax in ICR mouse at 200 mg/kg, po measured after 48 hrs by LC-MS/MS analysis; assay type: ADME, organism-based; conditions: in vivo
[28] = Oral bioavailability in ICR mouse at 200 mg/kg measured after 48 hrs by LC-MS/MS analysis; assay type: ADME, organism-based; conditions: in vivo
[29] = AUC (0 to 24 hrs) in ICR mouse at 200 mg/kg, po measured after 48 hrs by LC-MS/MS analysis; assay type: ADME, organism-based; conditions: in vivo
[30] = Oral bioavailability in ICR mouse at 50 mg/kg measured after 24 hrs by LC-MS/MS analysis; assay type: ADME, organism-based; conditions: in vivo
PLC-PRF-5 = test: Growth inhibition of human PLCPRF5 cells by SRB assay; assay type: functional
[31] = Oral bioavailability in ICR mouse at 100 mg/kg measured after 24 hrs by LC-MS/MS analysis; assay type: ADME, organism-based; conditions: in vivo
[32] = Antitumor activity against human Hep 3B-Luc cells xenografted in female BALB/c nude mouse assessed as survival at 100 mg/kg, po administered once daily for 7 weeks and measured after 119 days relative to control; assay type: functional; conditions: 2856 h, time 119 day
[33] = Half-life in ICR mouse at 200 mg/kg, po measured after 48 hrs by LC-MS/MS analysis; assay type: ADME, organism-based; conditions: in vivo
[34] = Cmax in ICR mouse at 50 mg/kg, po measured after 24 hrs by LC-MS/MS analysis; assay type: ADME, organism-based; conditions: in vivo
[35] = AUC (0 to 24 hrs) in ICR mouse at 5 mg/kg, iv by LC-MS/MS analysis; assay type: ADME, organism-based; conditions: in vivo
SNU-387 = test: Growth inhibition of human SNU-387 cells by SRB assay; assay type: functional
HepG2 = test: Growth inhibition of human HepG2 cells by SRB assay; assay type: functional
[36] = Half-life in ICR mouse at 5 mg/kg, iv by LC-MS/MS analysis; assay type: ADME, organism-based; conditions: in vivo
[37] = Half-life in ICR mouse at 100 mg/kg, po measured after 24 hrs by LC-MS/MS analysis; assay type: ADME, organism-based; conditions: in vivo
Huh-7 [38] = test: Growth inhibition of FGF19 amplified and FGFR4 overexpressing human Huh-7 cells by SRB assay; assay type: functional

Sequence of Fibroblast growth factor receptor 3 (P22607 whole entry): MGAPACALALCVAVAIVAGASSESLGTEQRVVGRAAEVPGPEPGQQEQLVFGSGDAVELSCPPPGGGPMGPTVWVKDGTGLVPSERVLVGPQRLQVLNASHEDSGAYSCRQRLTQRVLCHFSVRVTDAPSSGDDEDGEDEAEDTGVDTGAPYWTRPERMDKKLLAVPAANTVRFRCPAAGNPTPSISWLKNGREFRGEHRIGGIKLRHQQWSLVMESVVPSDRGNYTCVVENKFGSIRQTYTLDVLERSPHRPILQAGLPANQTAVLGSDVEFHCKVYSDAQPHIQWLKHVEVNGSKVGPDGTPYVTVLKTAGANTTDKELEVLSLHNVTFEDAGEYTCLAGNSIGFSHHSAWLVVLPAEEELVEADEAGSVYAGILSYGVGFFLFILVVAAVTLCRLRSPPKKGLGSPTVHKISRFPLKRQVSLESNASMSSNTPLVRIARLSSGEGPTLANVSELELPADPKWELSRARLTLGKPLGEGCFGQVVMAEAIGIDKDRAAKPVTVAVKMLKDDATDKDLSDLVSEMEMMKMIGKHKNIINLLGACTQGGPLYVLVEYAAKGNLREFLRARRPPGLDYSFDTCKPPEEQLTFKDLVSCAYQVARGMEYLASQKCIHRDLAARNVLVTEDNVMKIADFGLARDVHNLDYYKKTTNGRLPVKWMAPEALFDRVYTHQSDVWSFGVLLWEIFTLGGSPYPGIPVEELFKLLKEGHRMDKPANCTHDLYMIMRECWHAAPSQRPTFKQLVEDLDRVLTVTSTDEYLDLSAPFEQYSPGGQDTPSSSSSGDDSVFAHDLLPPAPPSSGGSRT
Sequence of Fibroblast growth factor receptor 4 (P22455 whole entry): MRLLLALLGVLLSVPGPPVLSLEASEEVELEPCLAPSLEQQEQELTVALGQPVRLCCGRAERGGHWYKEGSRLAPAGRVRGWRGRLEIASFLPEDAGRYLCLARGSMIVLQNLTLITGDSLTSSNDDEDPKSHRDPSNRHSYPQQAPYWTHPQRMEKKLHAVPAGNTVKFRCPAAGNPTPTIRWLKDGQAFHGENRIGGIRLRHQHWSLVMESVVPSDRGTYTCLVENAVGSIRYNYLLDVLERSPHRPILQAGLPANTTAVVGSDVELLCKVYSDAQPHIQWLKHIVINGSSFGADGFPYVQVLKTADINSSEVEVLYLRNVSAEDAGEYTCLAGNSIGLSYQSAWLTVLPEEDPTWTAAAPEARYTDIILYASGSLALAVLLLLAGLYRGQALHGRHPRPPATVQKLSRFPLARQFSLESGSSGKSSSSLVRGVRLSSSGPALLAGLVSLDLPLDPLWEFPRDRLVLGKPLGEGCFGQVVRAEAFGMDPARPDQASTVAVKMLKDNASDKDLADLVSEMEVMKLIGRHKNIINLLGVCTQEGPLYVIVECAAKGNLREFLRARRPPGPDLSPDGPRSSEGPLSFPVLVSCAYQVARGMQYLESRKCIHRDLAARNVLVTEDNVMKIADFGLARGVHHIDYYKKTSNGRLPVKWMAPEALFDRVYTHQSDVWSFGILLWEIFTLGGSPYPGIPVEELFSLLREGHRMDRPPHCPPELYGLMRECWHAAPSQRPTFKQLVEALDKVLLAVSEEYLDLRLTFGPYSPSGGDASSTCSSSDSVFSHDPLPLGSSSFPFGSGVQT

Compound: C=CC(=O)Nc1ccccc1Nc1cc2c(-c3ccc[nH]3)nc(-c3c(Cl)c(OC)cc(OC)c3Cl)cc2cn1
IC50 (Huh-7 [1]): 61 nM

Compound: C=CC(=O)Nc1ccccc1Nc1cc2cnc(-c3c(F)c(OC)cc(OC)c3F)cc2cn1
IC50 (Huh-7 [1]): 25 nM

Compound: C=CC(=O)Nc1ccccc1Nc1cc2cnc(-c3c(Cl)c(OC)cc(OC)c3Cl)cc2cn1
IC50 [4]: 4630 nM
IC50 (Huh-7 [1]): 23 nM
IC50 [7]: 506 nM
IC50 [8]: 281 nM

Compound: C=CC(=O)Nc1ccccc1Nc1cc2c(CC)nc(-c3c(Cl)c(OC)cc(OC)c3Cl)cc2cn1
IC50 (Huh-7 [1]): 36 nM

Compound: C=CC(=O)Nc1ccccc1Nc1cc2c(C)nc(-c3c(Cl)c(OC)cc(OC)c3Cl)cc2cn1
inhibition [11]: > 85%
AUC(0-t) at 24 h [12]: 27300 ng·h/mL
Activity (Hep 3B2 [13]): Active
Activity (Hep 3B-Luc [14]): Active
GI50 (RT-112): 151 nM
Cmax [15]: 8140 ng/mL
half-life [16]: 4.4 h
Cmax [17]: 24600 ng/mL
GI50 [18]: 913 nM
Activity (Hep 3B-Luc [19]): Active
Tmax [20]: 0.5 h
Tmax [21]: 1 h
Tmax [22]: 1 h
AUC(0-t) at 24 h [23]: 59500 ng·h/mL
GI50 [24]: 16 nM
GI50 (Hep 3B2 [25]): 16 nM
inhibition [26]: > 85%
Cmax [27]: 40700 ng/mL
Activity [3]: Non-Toxic
bioavailability [28]: 53.2%
AUC(0-t) at 48 h [29]: 102000 ng·h/mL
IC50 [4]: > 10000 nM
bioavailability [30]: 56.8%
GI50 (PLC-PRF-5): 598 nM
bioavailability [31]: 61.9%
IC50 [5]: 33 nM
survival at 100 mg/kg [32]: > 90%
IC50 (Huh-7 [1]): 19 nM
IC50 (Hep 3B2 [6]): 16 nM
half-life [33]: 8.6 h
Cmax [34]: 11200 ng/mL
IC50 [7]: 1260 nM
AUC(0-t) [35]: 4810 ng·h/mL
GI50 (SNU-387): 251 nM
GI50 (HepG2): 335 nM
half-life [36]: 1.7 h
IC50 [8]: 3270 nM
Activity [9]: Non-Toxic
half-life [37]: 3.9 h
Activity (Huh-7 [10]): Active
GI50 (Huh-7 [38]): 16 nM

Compound: C=CC(=O)Nc1cccc(C)c1Nc1ncc2cc(-c3c(Cl)c(OC)cc(OC)c3Cl)ccc2n1
IC50 (Huh-7 [1]): 191 nM

Compound: C=CC(=O)Nc1cc(C)ccc1Nc1cc2cnc(-c3c(Cl)c(OC)cc(OC)c3Cl)cc2cn1
IC50 (Huh-7 [1]): 125 nM

Compound: C=CC(=O)Nc1ccc(C)cc1Nc1cc2cnc(-c3c(Cl)c(OC)cc(OC)c3Cl)cc2cn1
IC50 (Huh-7 [1]): 37 nM

Compound: C=CC(=O)Nc1ccccc1Nc1cc2c(-c3cnn(C)c3)nc(-c3c(Cl)c(OC)cc(OC)c3Cl)cc2cn1
IC50 (Huh-7 [1]): 50 nM

Compound: C=CC(=O)Nc1cc(N2CCOCC2)ccc1Nc1cc2cnc(-c3c(Cl)c(OC)cc(OC)c3Cl)cc2cn1
IC50 (Huh-7 [1]): 80 nM

More lines, in order of falling IC50 (Huh-7 [1]), values ahead:

IC50 (Huh-7 [1]): 220 nM
Compound: C=CC(=O)Nc1cccc(F)c1Nc1cc2cnc(-c3c(Cl)c(OC)cc(OC)c3Cl)cc2cn1

IC50 (Huh-7 [1]): 212 nM
Compound: C=CC(=O)Nc1cccc(C)c1Nc1cc2cnc(-c3c(Cl)c(OC)cc(OC)c3Cl)cc2cn1

IC50 (Huh-7 [1]): 140 nM
Compound: C=CC(=O)Nc1cccc(F)c1Nc1cc2cnc(-c3c(F)c(OC)cc(OC)c3F)cc2cn1

IC50 (Huh-7 [1]): 137 nM
Compound: C=CC(=O)Nc1ccc(N2CCN(CC)CC2)c(F)c1Nc1cc2cnc(-c3c(F)c(OC)cc(OC)c3F)cc2cn1

IC50 (Huh-7 [1]): 113 nM
Compound: C=CC(=O)Nc1cc2c(cc1Nc1cc3cnc(-c4c(Cl)c(OC)cc(OC)c4Cl)cc3cn1)CCC2

IC50 (Huh-7 [1]): 110 nM
Compound: C=CC(=O)Nc1ccccc1Nc1cc2c(-c3ccco3)nc(-c3c(Cl)c(OC)cc(OC)c3Cl)cc2cn1

IC50 [2]: 53 nM
IC50 [4]: > 10000 nM
IC50 (Huh-7 [1]): 81 nM
IC50 [7]: 1840 nM
IC50 [8]: 2500 nM
Compound: C=CC(=O)N[C@H]1CCOC[C@H]1Nc1ncc2cc(-c3c(Cl)c(OC)cc(OC)c3Cl)ccc2n1 [FISOGATINIB]
Activity [3]: Non-Toxic
IC50 [5]: 161 nM
IC50 (Hep 3B2 [6]): 122 nM
Activity [9]: Non-Toxic
Activity (Huh-7 [10]): Active

IC50 (Huh-7 [1]): 69 nM
Compound: C=CC(=O)Nc1ccccc1Nc1cc2c(-c3ccccc3)nc(-c3c(Cl)c(OC)cc(OC)c3Cl)cc2cn1

IC50 (Huh-7 [1]): 68 nM
Compound: C=CC(=O)Nc1ccccc1Nc1cc2c(-c3cccnc3)nc(-c3c(Cl)c(OC)cc(OC)c3Cl)cc2cn1

IC50 (Huh-7 [1]): 67 nM
Compound: C=CC(=O)Nc1ccccc1Nc1cc2c(C3CC3)nc(-c3c(Cl)c(OC)cc(OC)c3Cl)cc2cn1
